Our source for the EC50 and Ki values is PubChem BioAssay AID2009 (NMMLSC, 2009).

A word on the EC50: it is the concentration at which the effect is half-maximal. The term Ki denotes the equilibrium dissociation constant of an inhibitor or competing ligand from its target.

Activity calls are given as the source filed them.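 How the source made its calls: active means EC50 of 30 microM or lower and a span of response of at least a set limit; inactive means the rest.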 Where only a bound is given, the exact number is not on record here.

The target of the assay is Cdc42 activated mutant (human), GST fusion. As to the kind of experiment: activated mutant Cdc42 GTP-binding inhibitors, SAR follow-up, biochemical, oxadiazole analogs, multiplex bead flow cytometry, Ki (AID 2009). To be noted: Bead-based flow cytometry, Bodipy-FL-GTP binding; for Ki: measured here: Ki calculated from EC50.

Turning to `Cc1ccc(C)c(N2CCN(C(=O)CCc3nc(-c4ccc(N(C)C)cc4)no3)CC2)c1`, the concentration giving a half-maximal response (EC50) is 1660 nM and the inhibition constant Ki is 260 nM.

On to `COc1ccc(-c2noc(CCC(=O)N3CCN(c4ccc(C(F)(F)F)cc4)CC3)n2)cc1`, for which the EC50 was > 30000 nM (inactive).

In the case of `COc1ccc(-c2noc(CCC(=O)N3CCN(c4cccc(OC)c4)CC3)n2)cc1`, the EC50 result is “inactive” and the Ki is 760 nM.

On to `COc1ccc(-c2noc(CCC(=O)N3CCN(c4ccc(Br)cc4)CC3)n2)cc1`, for which the EC50 is > 30000 nM (inactive).

With `Cc1ccc(C)c(N2CCN(C(=O)CCc3nc(-c4cccc(Br)c4)no3)CC2)c1`, the EC50 was 2340 nM and the inhibitory constant (Ki) is 360 nM.

Regarding `COc1ccc(-c2cc(CCC(=O)N3CCN(c4cc(C)ccc4C)CC3)on2)cc1`, the EC50 is 1450 nM and the Ki is 220 nM.

In the case of `Cc1ccc(C)c(N2CCN(C(=O)CCc3nc(-c4ccccc4F)no3)CC2)c1`, the EC50 was 1510 nM and the Ki was 230 nM.

Turning to `COc1ccc(-c2noc(CCC(=O)N3CCN(c4cccc(C)c4C)CC3)n2)cc1`, the EC50 was 1380 nM and the Ki was 210 nM.

Take `COc1ccc(-c2noc(CCC(=O)N3CCC(c4cc(C)ccc4C)CC3)n2)cc1`: the EC50 was 1630 nM and the Ki was 250 nM.

In the case of `COc1ccccc1-c1noc(CCC(=O)N2CCN(c3cc(C)ccc3C)CC2)n1`, the EC50 was 4910 nM and the Ki was 760 nM.

On to `Cc1ccc(C)c(N2CCN(C(=O)CCc3nc(-c4cccc(F)c4)no3)CC2)c1`, for which the EC50 is 1840 nM and the Ki is 280 nM.

For the compound `COc1ccc(-c2coc(CCC(=O)N3CCN(c4cc(C)ccc4C)CC3)n2)cc1`, the EC50 was 1680 nM and the Ki is 260 nM.

For `Cc1ccc(C)c(N2CCN(C(=O)CCc3nc(-c4ccccc4)no3)CC2)c1`, the concentration for a half-maximal effect (EC50) is 621 nM and the inhibition constant (Ki) was 100 nM.

Turning to `COc1ccc(-c2cc(CCC(=O)N3CCN(c4cc(C)ccc4C)CC3)[nH]n2)cc1`, the EC50 is > 30000 nM (inactive).

For `COc1ccc(-c2noc(CCC(=O)N3CCN(c4cccc(Cl)c4)CC3)n2)cc1`, the EC50 was 7130 nM and the Ki was 1100 nM.

Consider `COc1cccc(-c2noc(CCC(=O)N3CCN(c4cc(C)ccc4C)CC3)n2)c1`, for which the 50% effective concentration (EC50) is 3680 nM and the Ki was 570 nM.

Regarding `COc1ccc(-c2noc(CCC(=O)N3CCN(c4ccccc4Br)CC3)n2)cc1`, the EC50 was 1430 nM and the Ki was 220 nM.

Regarding `Cc1ccc(C)c(N2CCN(C(=O)CCc3nc(-c4ccc(F)cc4)no3)CC2)c1`, the EC50 is 665 nM and the Ki is 100 nM.

Turning to `COc1ccc(-c2ccc(CCC(=O)N3CCN(c4cc(C)ccc4C)CC3)o2)cc1`, the EC50 was > 30000 nM (inactive).

On to `COc1ccc(-c2noc(CC(=O)N3CCN(c4cc(C)ccc4C)CC3)n2)cc1`, for which the EC50 entry is “inactive” and the Ki is 1770 nM.

In the case of `COc1ccc(-c2ccc(CCC(=O)N3CCN(c4cc(C)ccc4C)CC3)[nH]2)cc1`, the EC50 is > 30000 nM (inactive).

For `COc1ccc(-c2noc(CCC(=O)N3CCN(c4ccccc4C)CC3)n2)cc1`, the EC50 was 1050 nM and the inhibition constant Ki is 160 nM.

Turning to `COc1ccc(-c2noc(CCC(=O)N3CCN(c4ccccc4F)CC3)n2)cc1`, the EC50 is 1070 nM and the inhibitory constant (Ki) is 170 nM.

As for `Cc1ccc(C)c(N2CCN(C(=O)CCc3nc(-c4cccc(C(F)(F)F)c4)no3)CC2)c1`, the EC50 is 2670 nM and the Ki was 410 nM.

For `COc1ccc(-c2noc(CCC(=O)N3CCN(c4ccc(C)cc4)CC3)n2)cc1`, the EC50 entry is “inactive” and the Ki was 190 nM.

As for `COc1ccc(-c2noc(CCC(=O)N3CCN(c4cccc(F)c4)CC3)n2)cc1`, the EC50 result was “inactive” and the Ki is 170 nM.

With `COc1ccc(-c2noc(CCC(=O)N3CCN(c4ccccc4OC)CC3)n2)cc1`, the EC50 is 3080 nM and the Ki is 480 nM.

Turning to `COc1ccc(-c2noc(CCC(=O)N3CCN(c4ccccc4)CC3)n2)cc1`, the EC50 entry is “inactive” and the Ki was 110 nM.

Turning to `Cc1ccc(C)c(N2CCN(C(=O)CCc3nc(-c4ccccc4Br)no3)CC2)c1`, the EC50 was 1190 nM and the Ki is 180 nM.

`COc1ccc(-c2noc(CCC(=O)N3CCN(c4cccc(C(F)(F)F)c4)CC3)n2)cc1`: the EC50 was > 30000 nM (inactive).

Take `COc1ccc(-c2ccc(CCC(=O)N3CCN(c4cc(C)ccc4C)CC3)s2)cc1`: the EC50 is 2940 nM and the Ki was 460 nM.

With `COc1ccc(-c2noc(CCCCC(=O)N3CCN(c4cc(C)ccc4C)CC3)n2)cc1`, the EC50 is 17400 nM and the Ki is 2690 nM.

As to `COc1ccc(-c2noc(CCC(=O)N3CCN(c4ccc(OC)cc4)CC3)n2)cc1`, the 50% effective concentration (EC50) is 700 nM and the Ki was 110 nM.

As to `COc1ccc(-c2noc(CCC(=O)N3CCN(c4ccc(Cl)cc4)CC3)n2)cc1`, the EC50 entry was “inactive” and the Ki was 20 nM.

As for `COc1ccc(-c2noc(CCC(=O)N3CCN(c4cc(C)ccc4C)CC3)n2)cc1`, the EC50 is 2280 nM and the Ki was 350 nM.

On to `COc1ccc(-c2noc(CCC(=O)N3CCN(c4cccc(Br)c4)CC3)n2)cc1`, for which the EC50 is > 30000 nM (inactive).

For the compound `Cc1ccc(C)c(N2CCN(C(=O)CCc3nc(-c4ccc(Cl)cc4)no3)CC2)c1`, the EC50 was 1660 nM and the Ki was 260 nM.

For `Cc1ccc(C)c(N2CCN(C(=O)CCc3nc(-c4ccc(C(F)(F)F)cc4)no3)CC2)c1`, the EC50 is 4980 nM and the Ki was 770 nM.

As to `COc1ccc(-c2noc(CCC(=O)N3CCN(c4ccccc4Cl)CC3)n2)cc1`, the half-maximal effective concentration (EC50) was 2030 nM and the Ki was 310 nM.

As to `Cc1ccc(C)c(N2CCN(C(=O)CCc3nc(-c4ccccc4C(F)(F)F)no3)CC2)c1`, the EC50 was 1690 nM and the Ki is 260 nM.

As for `Cc1cccc(-c2noc(CCC(=O)N3CCN(c4cc(C)ccc4C)CC3)n2)c1`, the EC50 is 1850 nM and the inhibition constant (Ki) was 290 nM.

Regarding `COc1ccc(-c2noc(CCCC(=O)N3CCN(c4cc(C)ccc4C)CC3)n2)cc1`, the 50% effective concentration (EC50) was 5160 nM and the Ki is 800 nM.

In the case of `Cc1ccc(C)c(N2CCN(C(=O)CCc3nc(-c4ccc(Br)cc4)no3)CC2)c1`, the 50% effective concentration (EC50) is 2660 nM and the inhibitory constant (Ki) is 410 nM.

Regarding `Cc1ccc(C)c(N2CCN(C(=O)CCc3nc(-c4ccccc4Cl)no3)CC2)c1`, the EC50 was 951 nM and the Ki is 150 nM.

With `COc1ccc(-c2noc(CCC(=O)N3CCN(c4ccccc4C(F)(F)F)CC3)n2)cc1`, the EC50 was 2000 nM and the Ki is 310 nM.

Consider `COc1ccc(-c2cccc(CCC(=O)N3CCN(c4cc(C)ccc4C)CC3)c2)cc1`, for which the EC50 is 4050 nM and the Ki is 630 nM.

For `Cc1ccc(-c2noc(CCC(=O)N3CCN(c4cc(C)ccc4C)CC3)n2)cc1`, the EC50 is 3030 nM and the Ki was 470 nM.

Turning to `Cc1ccc(C)c(N2CCN(C(=O)CCc3nc(-c4cccc(Cl)c4)no3)CC2)c1`, the EC50 is 3910 nM and the Ki was 600 nM.

Consider `COc1ccc(-c2noc(CCC(=O)N3CCN(c4ccc(F)cc4)CC3)n2)cc1`, for which the EC50 entry is “inactive” and the Ki is 140 nM.

Regarding `COc1ccc(-c2noc(CCC(=O)N3CCN(c4cccc(C)c4)CC3)n2)cc1`, the EC50 was 2340 nM and the inhibitory constant (Ki) is 360 nM.

For `Cc1ccc(C)c(N2CCN(C(=O)CCc3nc(-c4ccccc4C)no3)CC2)c1`, the EC50 was 1540 nM and the inhibitory constant (Ki) was 240 nM.
